Results: ChEMBL document CHEMBL5053515, “Insights into Ergochromes of the Plant Pathogen Claviceps purpurea” (J Nat Prod, 2021)
Calls of active or inactive are those of the source. No cut-off for these calls is given here.

How the values were obtained:
[1] = biological target: DNA topoisomerase 2-alpha (Homo sapiens) (UniProt P11388); assay: Inhibition of human topoisomerase 2a assessed as reduction in decatenation of kinetoplast DNA at 25 uM using kinetoplast DNA as substrate incubated for 2 hrs by ethidium bromide staining based agarose gel electrophoresis method relative to control
HepG2 [2] = assay: Cytotoxicity against human HepG2 cells assessed as reduction in cell viability measured at 48 hrs by resazurin reagent based assay; type: functional; details: HepG2, 48 h
[3] = biological target: T1, DNA topoisomerase 1 (Homo sapiens) (UniProt P11387); assay: Inhibition of topoisomerase 1 (unknown origin) assessed as relaxation of supercoiled plasmid pUC18 measured after 30 mins by ethidium bromide staining based agarose gel electrophoresis
T1 sequence (whole entry): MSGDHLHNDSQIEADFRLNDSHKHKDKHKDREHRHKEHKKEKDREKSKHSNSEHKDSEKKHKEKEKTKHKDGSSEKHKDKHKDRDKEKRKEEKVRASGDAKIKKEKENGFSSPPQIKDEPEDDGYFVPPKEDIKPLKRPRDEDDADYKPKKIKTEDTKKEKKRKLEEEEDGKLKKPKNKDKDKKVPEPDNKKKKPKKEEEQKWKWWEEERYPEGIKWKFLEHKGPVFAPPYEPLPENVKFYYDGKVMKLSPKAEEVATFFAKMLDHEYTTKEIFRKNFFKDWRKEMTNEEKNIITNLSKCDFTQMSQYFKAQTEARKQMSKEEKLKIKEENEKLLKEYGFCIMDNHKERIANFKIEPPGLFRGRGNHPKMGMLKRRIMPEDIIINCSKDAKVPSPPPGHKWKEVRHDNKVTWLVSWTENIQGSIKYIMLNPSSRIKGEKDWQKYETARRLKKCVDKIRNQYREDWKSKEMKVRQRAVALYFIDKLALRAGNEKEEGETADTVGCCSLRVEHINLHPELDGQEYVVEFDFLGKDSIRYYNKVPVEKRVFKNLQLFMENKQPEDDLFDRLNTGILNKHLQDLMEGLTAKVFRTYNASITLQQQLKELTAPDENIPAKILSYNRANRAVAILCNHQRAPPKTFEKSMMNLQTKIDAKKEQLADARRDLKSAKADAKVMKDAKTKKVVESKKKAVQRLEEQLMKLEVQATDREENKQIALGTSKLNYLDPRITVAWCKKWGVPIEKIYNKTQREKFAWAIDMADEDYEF

CCF-STTG1 = assay: Cytotoxicity against human CCF-STTG1 cells assessed as reduction in cell viability measured at 48 hrs by resazurin reagent based assay; type: functional; details: CCF-STTG1, 48 h
[4] = biological target: T1, DNA topoisomerase 1 (Homo sapiens); assay: Inhibition of topoisomerase 1 (unknown origin) assessed as relaxation of supercoiled plasmid pUC18 DNA at 100 uM measured after 30 mins by ethidium bromide staining based agarose gel electrophoresis relative to control
HepG2 [5] = assay: Cytotoxicity against human HepG2 cells assessed as reduction in cell viability at up to 100 uM measured at 48 hrs by resazurin reagent based assay; type: functional
HepG2 [6] = assay: Cytotoxicity against human HepG2 cells assessed as reduction in cell viability at 100 uM measured at 48 hrs by resazurin reagent based assay relative to control; type: functional

DNA topoisomerase 2-alpha (Homo sapiens), sequence (P11388 whole entry): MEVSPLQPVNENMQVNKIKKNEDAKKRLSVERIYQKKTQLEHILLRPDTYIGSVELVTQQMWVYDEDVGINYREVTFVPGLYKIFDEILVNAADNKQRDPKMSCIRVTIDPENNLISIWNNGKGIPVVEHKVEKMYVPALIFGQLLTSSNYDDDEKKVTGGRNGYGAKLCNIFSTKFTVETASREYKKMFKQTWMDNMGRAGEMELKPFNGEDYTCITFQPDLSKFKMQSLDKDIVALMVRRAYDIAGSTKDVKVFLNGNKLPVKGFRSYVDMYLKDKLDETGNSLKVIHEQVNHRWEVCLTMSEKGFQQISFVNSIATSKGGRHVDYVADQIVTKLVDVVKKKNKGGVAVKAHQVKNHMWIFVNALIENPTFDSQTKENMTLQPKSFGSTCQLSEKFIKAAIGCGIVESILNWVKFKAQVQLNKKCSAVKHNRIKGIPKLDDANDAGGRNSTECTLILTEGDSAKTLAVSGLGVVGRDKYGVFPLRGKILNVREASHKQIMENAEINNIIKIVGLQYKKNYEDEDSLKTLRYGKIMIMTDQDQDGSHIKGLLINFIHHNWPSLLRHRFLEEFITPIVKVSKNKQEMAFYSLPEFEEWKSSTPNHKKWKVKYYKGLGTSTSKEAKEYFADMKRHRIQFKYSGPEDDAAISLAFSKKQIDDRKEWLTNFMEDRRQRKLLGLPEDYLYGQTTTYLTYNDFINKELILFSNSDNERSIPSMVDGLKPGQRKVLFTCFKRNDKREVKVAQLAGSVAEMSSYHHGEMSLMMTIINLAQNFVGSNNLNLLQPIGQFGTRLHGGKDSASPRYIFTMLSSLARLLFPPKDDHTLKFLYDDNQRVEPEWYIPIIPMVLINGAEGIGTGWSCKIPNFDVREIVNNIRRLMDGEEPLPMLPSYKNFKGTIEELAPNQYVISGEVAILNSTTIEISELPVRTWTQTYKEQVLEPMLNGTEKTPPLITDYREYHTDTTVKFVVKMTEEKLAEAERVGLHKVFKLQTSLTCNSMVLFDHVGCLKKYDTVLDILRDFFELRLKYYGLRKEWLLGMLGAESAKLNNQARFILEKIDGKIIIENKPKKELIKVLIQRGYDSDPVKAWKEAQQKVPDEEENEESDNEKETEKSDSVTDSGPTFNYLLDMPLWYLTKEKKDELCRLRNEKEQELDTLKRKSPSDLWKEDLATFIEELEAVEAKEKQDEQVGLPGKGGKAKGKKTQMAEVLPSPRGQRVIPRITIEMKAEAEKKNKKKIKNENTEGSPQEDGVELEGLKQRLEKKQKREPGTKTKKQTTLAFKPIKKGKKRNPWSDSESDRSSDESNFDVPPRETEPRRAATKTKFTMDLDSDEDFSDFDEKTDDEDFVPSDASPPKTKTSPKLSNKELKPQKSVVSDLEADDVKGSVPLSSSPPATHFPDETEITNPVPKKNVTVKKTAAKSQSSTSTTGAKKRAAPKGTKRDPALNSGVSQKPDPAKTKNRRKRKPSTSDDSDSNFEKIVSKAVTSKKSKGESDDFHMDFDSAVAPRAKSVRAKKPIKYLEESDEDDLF

Row | SMILES | inhibition [1] | IC50 (HepG2 [2]) | inhibition [3] | IC50 (CCF-STTG1) | inhibition [4] | Activity (HepG2 [5]) | Activity (HepG2 [6])
1 | COC(=O)[C@]12Oc3ccc(-c4ccc5c(c4O)C(=O)C4=C(O)C[C@@H](C)[C@H](O)[C@@]4(C(=O)OC)O5)c(O)c3C(=O)C1=C(O)C[C@@H](C)[C@@H]2O [SECALONIC ACID A] | 100% | 900 nM | Dose-dependent effect | 1000 nM | 100% |  | 
2 | COC(=O)[C@]12Oc3ccc(-c4ccc(O)c5c4O[C@@]4(C(=O)OC)C(=C(O)C[C@@H](C)[C@@H]4O)C5=O)c(O)c3C(=O)C1=C(O)C[C@@H](C)[C@@H]2O |  | 900 nM |  | 1000 nM |  |  | 
3 | COC(=O)[C@@]1(C(O)C(C)CC(=O)O)CC(=O)c2c(ccc(-c3ccc4c(c3O)C(=O)C3(O)C(O)C[C@@H](C)[C@H](O)[C@@]3(C(=O)O)O4)c2O)O1 (stereo partly specified) | inactive |  | inactive | 7500 nM |  |  | 
4 | COC(=O)[C@]12Oc3c(-c4ccc(O)c5c4O[C@@]4(C(=O)OC)C(=C(O)C[C@@H](C)[C@@H]4O)C5=O)ccc(O)c3C(=O)C1=C(O)C[C@@H](C)[C@@H]2O |  | 900 nM |  | 1000 nM |  |  | 
5 | Cc1cc2c(c(O)c1C(=O)O)C(=O)c1c(O)cc(O)c(O)c1C2=O |  |  |  |  |  | inactive | 
6 | COC(=O)[C@]12Oc3ccc(-c4ccc5c(c4O)C(=O)C4(O)C(=O)C[C@@H](C)[C@H](O)[C@@]4(C(=O)OC)O5)c(O)c3C(=O)C1(O)C(=O)C[C@@H](C)[C@@H]2O (stereo partly specified) |  | 53600 nM |  | 13400 nM |  |  | 
7 | Cc1cc2c(c(O)c1C(=O)O)C(=O)c1c(O)cc(O)cc1C2=O |  |  |  |  |  | inactive | 
8 | C[C@@H]1C[C@@]2(O)OC(=O)[C@@]3(Oc4ccc(-c5ccc6c(c5O)C(=O)C5(O)[C@@]7(O)C[C@@H](C)[C@H](O)[C@]5(O6)C(=O)O7)c(O)c4C(=O)C23O)[C@H]1O (stereo partly specified) | inactive | 59900 nM | inactive | 2300 nM |  |  | 3%
